Results: PMC7354438 (Viruses, 2020)
Where two headings read alike, the source gives them in different places.

Experiments:
[1] = Drug combination test, mock-infected Vero-E6 cells (CTG); type: cell-based; details: African green monkey, mock-infected Vero-E6 cells (control), read-out: Relative viability (%); for viability at 72 h, 0.008 uM: single drug 0.008 uM (other drug 0); for viability at 72 h, 0.04 uM: single drug 0.04 uM (other drug 0); for viability at 72 h, 0.2 uM: single drug 0.2 uM (other drug 0); for viability at 72 h, 1 uM: single drug 1.0 uM (other drug 0); for viability at 72 h, 5 uM: single drug 5.0 uM (other drug 0)
[2] = Cytotoxicity in mock-infected Vero-E6 cells (CellTiter-Glo); details: African green monkey
[3] = system: hCoV-19/Norway/Trondheim-E9/2020; assay: Drug test: viability of SARS-CoV-2-infected Vero-E6 cells (CellTiter-Glo); type: cell-based; parameters: AUC: unit not given beside the values
[4] = system: viral genomic and sub-genomic RNAs; assay: Gene expression analysis (RNA sequencing) of drug-treated infected Vero-E6 cells; type: cell-based, SARS-CoV-2; details: moi 0.1, 24 h, 3 M nelfinavir, 5 M amodiaquine or both
[5] = Severe acute respiratory syndrome coronavirus 2, Vero C1008, infected Vero-E6 cells, moi 0.1, 72 h, Mean ± SD, n = 3
[6] = Severe acute respiratory syndrome coronavirus 2, Vero C1008, 72 h
[7] = area under the dose-response curve of viability of virus-infected Vero-E6 cells, moi 0.1, 72 h, 7 concentrations, decimal comma

Molecule: Cc1c(O)cccc1C(=O)N[C@@H](CSc1ccccc1)[C@H](O)CN1C[C@H]2CCCC[C@H]2C[C@H]1C(=O)NC(C)(C)C [Nelfinavir]
- viability at 72 h, 0.008 uM [1]: 100%
- viability at 72 h, 0.04 uM [1]: 100%
- viability at 72 h, 0.2 uM [1]: 96.5%
- viability at 72 h, 1 uM [1]: 90.2%
- viability at 72 h, 5 uM [1]: 80.7%
- CC50 at 72 h ([2]; mock-infected Vero-E6 cells): 9.7 ± 0.4 µM
- EC50 [3, 5]: 2.1 ± 0.6 µM

Molecule: COC1=CC(c2cc3ccccc3[nH]2)=N/C1=C\c1[nH]c(C)cc1C [Obatoclax (Mesylate), Obatoclax]
- CC50 at 72 h ([2]; mock-infected Vero-E6 cells): 2.2 ± 1 µM
- EC50 [3, 5]: 0.3 ± 0.1 µM

Molecule: COC(=O)C[C@](O)(CCCC(C)(C)O)C(=O)O[C@@H]1C(OC)=C[C@]23CCCN2CCc2cc4c(cc2[C@H]13)OCO4 [Homoharringtonine]
- CC50 at 72 h ([2]; mock-infected Vero-E6 cells): 0.36 ± 0.6 µM
- EC50 [3, 5]: 0.03 ± 0.02 µM

Molecule: CCN(CC)Cc1cc(Nc2ccnc3cc(Cl)ccc23)ccc1O [Amodiaquine]
- transcription of viral genomic and sub-genomic RNAs [4]: lowered the transcription of viral genomic and sub-genomic RNAs
- viability at 72 h, 0.008 uM [1]: 89.1%
- viability at 72 h, 0.04 uM [1]: 91.8%
- viability at 72 h, 0.2 uM [1]: 76.4%
- viability at 72 h, 1 uM [1]: 76.6%
- viability at 72 h, 5 uM [1]: 71.5%
- CC50 at 72 h ([2]; mock-infected Vero-E6 cells): > 30 µM
- EC50 [3, 5]: 4.2 ± 0.2 µM

Molecule: CC[C@H]1CN2CCc3cc(OC)c(OC)cc3[C@@H]2C[C@@H]1C[C@H]1NCCc2cc(OC)c(OC)cc21 [Emetine]
- CC50 at 72 h [2]: 0.7 ± 0.4 µM
- EC50 [3, 6]: < 0.01 µM

Molecule: CC(C)C[C@H]1C(=O)N2CCC[C@H]2[C@]2(O)O[C@](NC(=O)[C@@H]3C=C4c5cccc6[nH]c(Br)c(c56)C[C@H]4N(C)C3)(C(C)C)C(=O)N12.CS(=O)(=O)O [Bromcriptine mesilate]
- AUC ([3]; 72 h): 59,71

Molecule: CC(C)Nc1nc2cc(Cl)c(Cl)cc2n1[C@H]1O[C@@H](CO)[C@H](O)[C@@H]1O [Maribavir]
- AUC [3, 7]: 145,81

Molecule: O=c1cc(-c2ccc(O)c(O)c2)oc2cc(O)cc(O)c12 [Luteolin]
- AUC [3, 7]: 119,07

Molecule: CO[C@@]1(NC(=O)C(C(=O)[O-])c2ccc(O)cc2)C(=O)N2C(C(=O)[O-])=C(CSc3nnnn3C)CO[C@@H]21.[Na+].[Na+] (stereo partly shown) [Moxalactam sodium salt]
- AUC ([3]; 72 h): 18,13

Molecule: C/C(O)=C(\C#N)C(=O)Nc1ccc(C(F)(F)F)cc1 [Teriflunomide]
- AUC [3, 7]: 72,87

Molecule: C[C@H]1[C@H](OC(=O)CCC(=O)O)O[C@@H]2O[C@@]3(C)CC[C@H]4[C@H](C)CC[C@@H]1[C@@]24OO3 [Artesunate]
- AUC [3, 7]: 222,25

Molecule: CC[C@H](C)C(=O)O[C@H]1C[C@@H](C)C=C2C=C[C@H](C)[C@H](CC[C@@H]3C[C@@H](O)CC(=O)O3)[C@H]21 [Lovastatin]
- AUC [3, 7]: 204,26

Molecule: CC[C@@]1(O)C(=O)OCc2c1cc1n(c2=O)Cc2cc3c(CN(C)C)c(O)ccc3nc2-1 [Topotecan]
- AUC [3, 7]: 124,6

Molecule: Nc1ncnc2c([C@@H]3N[C@H](CO)[C@@H](O)[C@H]3O)c[nH]c12 [BCX4430 (galidesivir), galidesivir]
- AUC [3, 7]: 94,08

Molecule: CC[C@@H](C(=O)[C@@H](C)[C@@H](O)[C@H](C)[C@@H]1O[C@@H]([C@@H](CC)C(=O)O)CC[C@@H]1C)[C@H]1O[C@]2(C=C[C@@H](O)[C@]3(CC[C@@](C)([C@H]4CC[C@](O)(CC)[C@H](C)O4)O3)O2)[C@H](C)C[C@@H]1C [Salinomycin]
- CC50 at 72 h [2]: 13.9 ± 0.3 µM
- EC50 [3, 6]: 0.2 ± 0.1 µM

Molecule: CN1CCC[C@H]1c1cccnc1 [nicotine]
- AUC [3]: 239
- rescue of cells from virus-mediated death [3]: rescued cells from virus-mediated death but altered the cell morphology

Molecule: O=C1[C@H](CC[C@H](O)c2ccc(F)cc2)[C@@H](c2ccc(O)cc2)N1c1ccc(F)cc1 [Ezetimibe]
- AUC [3, 7]: 138,39

Molecule: CN[C@H](CC(C)C)C(=O)N[C@H]1C(=O)N[C@@H](CC(N)=O)C(=O)N[C@H]2C(=O)N[C@H]3C(=O)N[C@H](C(=O)N[C@H](C(=O)O)c4cc(O)cc(O)c4-c4cc3ccc4O)[C@H](O[C@H]3C[C@](C)(N)[C@@H](O)[C@H](C)O3)c3ccc(c(Cl)c3)Oc3cc2cc(c3O[C@@H]2O[C@H](CO)[C@@H](O)[C@H](O)[C@H]2O[C@H]2C[C@](C)(NCc3ccc(-c4ccc(Cl)cc4)cc3)[C@@H](O)[C@H](C)O2)Oc2ccc(cc2Cl)[C@H]1O [Oritavancin]
- AUC ([3]; 72 h): 163,24

Molecule: CC(C)C[C@H]1C(=O)N2CCC[C@H]2[C@]2(O)O[C@](NC(=O)[C@@H]3C=C4c5cccc6[nH]c(Br)c(c56)C[C@H]4N(C)C3)(C(C)C)C(=O)N12 [Bromocriptine]
- AUC ([3]; 72 h): 164,57

Molecule: O=C1O[C@H]([C@@H](O)CO)C(O)=C1O [Ascorbic acid]
- AUC [3, 7]: 108,5

Molecule: COc1c(C)c2c(c(O)c1C/C=C(\C)CCC(=O)O)C(=O)OC2 [Mycophenolic acid]
- AUC [3, 7]: 103,74

Molecule: Ivermectin
- AUC ([3]; 72 h): 66,08

Molecule: COc1cccc(N2CCN(C3=Nc4c(F)cccc4[C@H](CC(=O)O)N3c3cc(C(F)(F)F)ccc3OC)CC2)c1 [Letermovir]
- AUC [3, 7]: 134,12

Molecule: Cn1c(=O)c2c(ncn2C)n(C)c1=O [Caffeine]
- AUC [3, 7]: 147,28

Molecule: CCC(C)n1ncn(-c2ccc(N3CCN(c4ccc(OCC5COC(Cn6cncn6)(c6ccc(Cl)cc6Cl)O5)cc4)CC3)cc2)c1=O (stereo not shown) [Itraconazole]
- AUC [3, 7]: 110,18

Molecule: C[C@H]1O[C@H](O[C@H]2[C@H](O)[C@@H](O)[C@@H](O)[C@H](O)[C@@H]2O)[C@@H](N)C[C@@H]1NC(=N)C(=O)O [Kasugamycin]
- AUC ([3]; 72 h): 88,55

Molecule: COc1ccc2[nH]c([S+]([O-])Cc3ncc(C)c(OC)c3C)nc2c1 (stereo not shown) [Omeprazole]
- AUC [3, 7]: 139,02

Molecule: CC(C)c1nc(CN(C)C(=O)N[C@H](C(=O)N[C@@H](Cc2ccccc2)C[C@H](O)[C@H](Cc2ccccc2)NC(=O)OCc2cncs2)C(C)C)cs1 [Ritonavir]
- AUC [3, 7]: 137,69
